# Experiments:
# [1] = system: long term potentiation (LTP) in mouse hippocampal slices; experiment: Long term potentiation in hippocampal slices with 7PA2 conditioned medium; format: cell-based
# Procedure: Long Term Potentiation. Field potentials were recorded in CA1 of mouse hippocampus by standard procedures. Swiss Webster mice between the ages of P16 and P26 were anesthetized with isoflurane. […] The hippocampus from each hemisphere was isolated and 350 μm coronal sections were made. […] Once placed in the chamber, slices were continuously perfused by a closed loop containing 15 ml of ACSF to conserve the oligomeric Aβ. […] A bipolar stimulating electrode (World Precision Inst.) was placed in the Schaffer collaterals to deliver baseline stimuli and tetani. A borosilicate glass recording electrode (2-4 MΩ) containing ACSF was positioned approximately 75-200 μm from the stimulating electrode. […] Test stimuli were delivered at 0.05 Hz. To induce LTP, 4 tetani (100 Hz for 1 second) were delivered 5 minutes apart. Field potential responses were amplified 10× using an Axopatch 200B. The data was sampled at 10 kHz and filtered at 2 kHz. Traces were analyzed using pClamp 9.2. The slope of the field potential was estimated using approximately 10-60% of the total response.
# [2] = system: transgenic TauP301L mouse model of frontotemporal dementia; experiment: Astrogliosis in transgenic TauP301L mice; format: in vivo; details: transgenic Tau (P301L) mice
# Procedure: Gliosis Quantitation. Five randomly selected, evenly spaced, sagittal sections were collected from paraformaldehyde-fixed and frozen hemispheres of treated and control mice. Sections were immunolabelled for astrocytes with anti-rat GFAβ IgG2a (Dako; diluted 1:50) and for microglia with anti-rat CD68 IgG2b (Dako; 1:50). Digital images were captured using a Coolsnap digital camera (Photometrics, Tuscon, Ariz.) mounted to a Zeiss, Axioscope 2 Plus microscope. Images were analysed using Openlab 3.08 imaging software (Improvision, Lexington Mass.). Quantification of gliosis. Five randomly selected, evenly spaced sagittal sections from paraformaldehyde-fixed and frozen hemispheres of treated and control mice were collected. Sections were immunolabeled for astrocytes with an antibody against rat GFAβ IgG2a (Dako; diluted 1:50) and for microglia with an antibody to rat CD68 IgG2b (Dako; 1:50). Digital images were captured using a Coolsnap digital camera (Photometrics) mounted to a Zeiss, Axioscope 2 Plus microscope. Images were analyzed using Openlab 3.08 imaging software (Improvision).
# APP = experiment: Analysis of APP in brain (western blot); format: in vivo, mouse; details: treated TgCRND8 mice
# Procedure: Analysis of APP in brain. Mouse hemi-brain samples were homogenized and spun at 109,000×g, in 20 mM Tris pH7.4,0.25M sucrose, 1 mM EDTA and 1 mM EGTA, and a protease inhibitor cocktail, mixed with 0.4% DEA (diethylamine)/100 mM NaCl. The supernatants were analysed for APPs levels by Western blotting using mAb 22C11, while the pellets were analysed for APP holoprotein with mAb C1/6.1 as previously described.
# Analysis of APP processing. Mouse hemi-brain samples were homogenized and spun at 109,000 g, in 20 mM Tris pH 7.4, 0.25 M sucrose, 1 mM EDTA and 1 mM EGTA, and a protease inhibitor cocktail, mixed with a mixture of 0.4% DEA (diethylamine) and 100 mMNaCl. The supernatants were analyzed for APP levels by western blotting using the monoclonal antibody 22C11, and the pellets were analyzed for APP holoprotein with the monoclonal antibody C1/6.1 as previously described. […] The target protein was probed with polyclonal APP C-terminal fragment-specific antibody (Sigma) by western blotting.
# Aβ oligomeric species = target: T1, Aβ oligomeric species (Homo sapiens, UniProt P05067); experiment: Western blot of soluble brain fractions for Aβ species; format: in vivo, mouse
# T1 construct: from tissue; host or cells: soluble fraction of hemi-brain homogenates of TgCRND8 transgenic mice
# Procedure: Soluble Aβ oligomer analyses. Levels of soluble Aβ oligomers were measured by a dot-blot assay with oligomer-specific antibodies on all brain homogenates from all experimental groups. Soluble oligomers were also examined by western blot analyses.
# Samples were centrifuged (100,000 g, 20 min, 4° C.), supernatant collected and frozen at −80° C. until use. Proteins (20 μg) were separated by SDS-PAGE on a 10-20% Tris-Tricine gel, transferred to a nitrocellulose membrane, blocked for 1 h at room temp with 8% non-fat milk and incubated overnight with anti-Aβ (6E10; 1:2,500). Membranes were rinsed with TBST, exposed to anti-mouse (1:5,000) for 1 h at room temperature, washed with TBST (6×10 min) and developed using enhanced chemiluminescence. Blots were stripped and re-probed with either anti-APP (22C11; 1:1,000) or anti-GAPDH (1:10,000) to confirm equal protein loading.
# Aβ42 = target: T2, Aβ42 (Homo sapiens, UniProt P05067); experiment: Plasma Aβ42 level; format: in vivo, mouse; details: TgCRND8 mice; 28 days of therapy at five months of age; untreated 1144±76 pg/ml
# T2 construct: analyzed for Aβ40 and Aβ42 using commercially available kits; from tissue; host or cells: hemi-brain homogenates and plasma of TgCRND8 transgenic mice
# Procedure: Plasma and Cerebral Aβ Content. Hemi-brain samples were homogenized in a buffered sucrose solution, followed by either 0.4% diethylamine/100 mM NaCl for soluble Aβ levels or cold formic acid for the isolation of total Aβ. After neutralization, the samples were diluted and analyzed for Aβ40 and Aβ42 using commercially available kits (BIOSOURCE International). Each hemisphere was analyzed in triplicate and the mean values±SEM reported. Western blot analyses were performed on all fractions using urea gels for Aβ species analyses. Aβ was detected using 6E10 (BIOSOURCE International) and Enhanced Chemiluminenscence (Amersham).
# Plasma and cerebral Aβ content. Hemi-brain samples were homogenized in a buffered sucrose solution, followed by either a mixture of 0.4% diethylamine and 100 mM NaCl for soluble Aβ levels or cold formic acid for the isolation of total Aβ. After neutralization, samples were diluted and analyzed for Aβ40 and Aβ42 using commercially available kits (Biosource International). Each hemisphere was analyzed in triplicate and the mean±s.e.m. was reported. Western blot analyses were carried out on all fractions using urea gels for Aβ species analyses. Aβ was detected using 6E10 (Biosource International).
# [3] = 4-month-old TgCRND8 mice, treated (n=4) vs untreated (n=4)
# [4] = 4-month-old treated vs untreated TgCRND8 mice, densitometry
# T1 sequence (P05067 672-713 limits assumed): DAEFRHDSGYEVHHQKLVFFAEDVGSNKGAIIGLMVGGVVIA
# T2 sequence (P05067 672-713 limits assumed): as above
Structure (SMILES),"synaptic response in the absence of a potentiating tetanus ([1]; baseline transmission, data not shown)",direct effect on LTP ([1]; compound-treated medium from plain CHO cells),astrogliosis [2],astrogliosis ([2]; listed as Scyllo-cyclohexanehexol),"levels of APP holoprotein, APP glycosylation, APPs-α, APPs-β in brain homogenates (APP)",high-molecular-weight Aβ species (Aβ oligomeric species; [3]),smaller Aβ oligomers (Aβ oligomeric species; [3]),increase in low-molecular-weight trimeric Aβ species (Aβ oligomeric species; [4]) [%],reduction of high-molecular-weight Aβ oligomeric species (Aβ oligomeric species; [4]) [%],Plasma Aβ42 levels (Aβ42) [pg/mL]
"OC1C(O)C(O)C(O)C(O)C1O (stereo not shown) [scyllo-cyclohexanehexol, 1,3,5/2,4,6-(scyllo-) cyclohexanehexol]",did not change synaptic response,no direct effect on LTP,did not prevent the astrogliosis,no effect,no effect,decrease in high-molecular-weight Aβ species,increase in smaller oligomers,282±5,25±4.5,–
"OC1C(O)C(O)C(O)C(O)C1O (stereo not drawn) [epi-cyclohexanehexol, 1,2,3,4,5/6-(epi-) cyclohexanehexol, reference compound]",–,–,–,–,–,–,–,–,–,1079 ± 79

# Source: patent US20070197452A1, “Treatment of amyloid-related diseases” (priority 2006, published 2007)
